The source of these data is ChEMBL document CHEMBL1201862, “PubChem BioAssay data set” (2004).

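Briefly, cells in 96-well plates were exposed to five compound concentrations for 48 h, and endpoints were estimated by linear interpolation. At the GI50, growth is halved.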 Calls of active or inactive are those of the source. Cut-off read from the data, not from the text of the source: active = GI50 up to about 1.1 µM and inactive = higher.

Common to all, as to assay: inhibition of tumour cell growth, NCI panel, 48 h
Test [1] concerns SF-268.
Test [2] relates to TK-10.
For test [3], the system named is HCT-15.
In test [4] the test system is K562.
For test [5], the system named is DU-145.
The subject of test [6] is NCI-H23.
Test [7] concerns IGROV-1.
Test [8] deals with SW-620.
Test [9] has as its system HOP-62.
For test [10], the system named is HT-29.
Test [11] has as its system HL-60.
The test system of test [12] is SK-MEL-5.
Test [13] has as its system COLO 205.
Test [14] concerns PC-3.
In test [15] the test system is MDA-MB-231.
For test [16], the system named is SF-295.
In test [17] the test system is KM12.
The test system of test [18] is RPMI-8226.
Test [19] relates to A549.
The subject of test [20] is NCI/ADR-RES.

Regarding `Cn1c(=O)c2nc(COCc3nc4c(=O)n(C)c(=O)n(C)c4[nH]3)[nH]c2n(C)c1=O`, the GI50 in test [1] is > 100 µM (inactive); in [2], > 100 µM (inactive); in test [3], above 100 µM; in test [4], > 100 µM (inactive); in test [5] it was > 100 µM (inactive); in test [6] it was > 100 µM (inactive). The GI50 in test [7], in test [8], in test [9], in test [10], in test [11] and in test [12] was > 100 µM (inactive) throughout. Further, the GI50 in [13], in test [14], in [15], in test [16], in [17] and in test [18] was > 100 µM (inactive) each time. Further, the GI50 in test [19] and in test [20] was > 100 µM (inactive) in each case.

Turning to `O=C1CC(Br)c2c(Br)sc(Br)c21` (stereo not given), the GI50 in [1] was 23.9 µM (inactive); in [2] it was 18.5 µM (inactive); in test [3], 16.9 µM; in [4], 7.73 µM (inactive); in test [5] it was 20.7 µM (inactive); in test [6], 16.7 µM (inactive). For the same compound, the GI50 was 16.6 µM (inactive) in test [7]; 10.5 µM (inactive) in test [8]; 20.9 µM (inactive) in test [9]; 16.7 µM (inactive) in test [10]; 14.2 µM (inactive) in test [11]; 19.8 µM (inactive) in test [12]. Also, the GI50 in [13] was 19.8 µM (inactive); in test [14] it was 19.1 µM (inactive); in [15] it was 18.9 µM (inactive); in [16], 27.7 µM (inactive); in [17], 22.9 µM (inactive); in test [18] it was 8.04 µM (inactive). Also, the GI50 was 29.1 µM (inactive) in test [19] and 34.5 µM (inactive) in [20].

As for `C=C(COCO)C(C)=O`, the GI50 in test [1] was 20 µM (inactive); in test [2], 13.7 µM (inactive); in [3], 21.4 µM; in [4] it was 3.45 µM (inactive); in test [5] it was 26 µM (inactive); in [6], 17.5 µM (inactive). Further, the GI50 in test [7] was 20.1 µM (inactive); in test [8], 3.3 µM (inactive); in test [9] it was > 47.1 µM (inactive); in test [10], 17.7 µM (inactive); in [11] it was 3.48 µM (inactive); in test [12], 17.5 µM (inactive). The GI50 was 7.52 µM (inactive) in [13]; 19.1 µM (inactive) in [14]; 18.8 µM (inactive) in test [15]; > 75 µM (inactive) in [16]; > 40.3 µM (inactive) in [17]; 2.94 µM (inactive) in test [18]. Moreover, the results for the GI50 in test [19] and in test [20] were 26 µM (inactive) and 22.4 µM (inactive), respectively.

As to `Nc1ncc(Cc2ccc3c(c2)OCO3)c(N)n1`, the GI50 is > 100 µM (inactive) in test [1]; > 100 µM (inactive) in test [2]; above 100 µM in [3]; > 100 µM (inactive) in test [4]; > 100 µM (inactive) in [5]; > 100 µM (inactive) in [6]. The GI50 in test [7] is > 100 µM (inactive); in test [8] it was > 100 µM (inactive); in test [9], > 100 µM (inactive); in test [10], > 100 µM (inactive); in [11], 73.5 µM (inactive); in [12] it was > 100 µM (inactive). Besides, the GI50 in test [13], in test [14], in test [15], in test [16], in test [17] and in [18] was > 100 µM (inactive) each time. In addition, the GI50 in test [19] and in [20] was > 100 µM (inactive) each time.
